The subject of assay [1] is primary human lymphatic endothelia cells (HLEC). The assay can be described thus: HLEC survival in medium with 0.1% FBS, MTS assay. The following applies: 30, 100, and 300 nM, 72 hrs. In general terms: Tetrazolium dyes change colour on reduction, which living cells bring about.
Description: (§1) The cells were cultured for 72 hrs, and cell viability was assayed with the MTS assay (Promega).
Assay [2] shares this test system. The assay can be described thus: HLEC proliferation in medium with 2% FBS, MTS assay. As to conditions: 30, 100, and 300 nM, 72 hrs.
Description: as §1
For the next assay, the target named is CLR/RAMP3 receptor (Homo sapiens, UniProt O60896+Q16602). The experiment in a line: cell-based.
CLR/RAMP3 receptor, sequence (Q16602 23-461): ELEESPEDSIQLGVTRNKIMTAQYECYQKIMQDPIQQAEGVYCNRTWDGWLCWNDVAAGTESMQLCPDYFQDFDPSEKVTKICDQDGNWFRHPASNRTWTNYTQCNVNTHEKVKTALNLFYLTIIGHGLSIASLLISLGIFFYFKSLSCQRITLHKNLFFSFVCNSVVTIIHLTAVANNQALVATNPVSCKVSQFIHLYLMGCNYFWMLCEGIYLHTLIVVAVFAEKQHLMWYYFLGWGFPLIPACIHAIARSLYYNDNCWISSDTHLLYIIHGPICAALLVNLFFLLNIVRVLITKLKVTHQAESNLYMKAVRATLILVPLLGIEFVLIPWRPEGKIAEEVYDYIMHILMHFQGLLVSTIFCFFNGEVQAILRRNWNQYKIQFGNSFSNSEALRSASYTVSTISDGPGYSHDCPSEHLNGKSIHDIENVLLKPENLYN
CLR/RAMP3 receptor, sequence (O60896 24-148): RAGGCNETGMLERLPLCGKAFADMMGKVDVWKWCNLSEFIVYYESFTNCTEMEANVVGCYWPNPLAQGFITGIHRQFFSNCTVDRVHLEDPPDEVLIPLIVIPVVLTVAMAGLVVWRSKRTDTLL
The target of another assay is CLR/RAMP1 receptor (Homo sapiens, UniProt O60894+Q16602). As to conditions: CLR/RAMP1 versus CLR/RAMP2.
CLR/RAMP1 receptor, sequence (Q16602 23-461): as the sequence (Q16602 23-461) above
CLR/RAMP1 receptor, sequence (O60894 27-148): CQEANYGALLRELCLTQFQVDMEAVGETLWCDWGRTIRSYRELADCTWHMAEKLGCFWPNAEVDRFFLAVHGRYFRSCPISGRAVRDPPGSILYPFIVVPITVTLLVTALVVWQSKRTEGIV

These results are taken from patent US20220340633A1 (Adepthera LLC, priority 2016, published 2022).

As usually defined, the pIC50 is the IC50 on a negative log10 scale, so that one unit is a factor of ten. Read a low pIC50 as a large IC50.

pIC50: −log10 of the molar value. “Also recorded” adds a separate entry of the source. Non-standard residues stand in square brackets, D forms with d. Residues, ends and D or L forms follow the SMILES beside them. *: point of attachment. Palmitoyl = CCCCCCCCCCCCCCCC(=O)*; AEEA = NCCOCCOCC(=O)O

Description for CLR/RAMP1 receptor: (§2) Using a receptor activation assay, the dose-dependent stimulatory response of peptide agonists of the present invention on a CLR/RAMP1 receptor, a CLR/RAMP2, or a CLR/RAMP3 receptor complex was determined. A cell line carrying the recombinant CLR/RAMP1, CLR/RAMP2, or a CLR/RAMP3 receptor was employed in the assay. Peptide agonist activities were tested, in duplicate, at 10 different concentrations, starting with 1.0 μM and serially diluted 3-fold, in DMSO. […] The CLR/RAMP1 cAMP, CLR/RAMP2 arrestin assays, and CLR/RAMP3 cAMP (DiscoveRx, Fremont, Calif.) were used.
(§3) For the analysis of antagonistic activity, the synthetic analogs were pre-incubated with the cells before adding the reference ligand at its EC80.
Description for CLR/RAMP3 receptor: as §2, §3

Consider `CC[C@H](C)[C@H](NC(=O)[C@H](CCC(N)=O)NC(=O)[C@H](Cc1c[nH]cn1)NC(=O)[C@H](C)NC(=O)[C@H](CC(C)C)NC(=O)[C@H](CCCCN)NC(=O)[C@H](CCC(N)=O)NC(=O)[C@@H](NC(=O)[C@@H](NC(=O)[C@@H]1CSSC[C@H](NC(=O)CNC(=O)[C@H](Cc2ccccc2)NC(=O)[C@H](CO)NC(=O)[C@H](CCCNC(=N)N)NC(=O)[C@H](CC(C)C)NC(=O)CNC(=O)[C@H](CCC(N)=O)NC(=O)[C@H](Cc2ccccc2)NC(=O)[C@H](CC(N)=O)NC(=O)[C@H](CC(N)=O)NC(=O)[C@H](CCSC)NC(=O)[C@H](CO)NC(=O)[C@H](CCC(N)=O)NC(=O)[C@H](CCCNC(=N)N)NC(=O)[C@H](Cc2ccc(O)cc2)NC(C)=O)C(=O)N[C@@H](CCCNC(=N)N)C(=O)N[C@@H](Cc2ccccc2)C(=O)NCC(=O)N[C@@H]([C@@H](C)O)C(=O)N1)[C@@H](C)O)C(C)C)C(=O)N[C@@H](Cc1ccc(O)cc1)C(=O)N[C@@H](CCC(N)=O)C(=O)N[C@@H](Cc1ccccc1)C(=O)N[C@H](C(=O)N[C@@H](CC(=O)O)C(=O)N[C@@H](CCCCN)C(=O)N[C@@H](CC(=O)O)C(=O)N[C@@H](CCCCN)C(=O)N[C@@H](CC(=O)O)C(=O)N[C@@H](CC(N)=O)C(=O)N[C@H](C(=O)N[C@@H](C)C(=O)N1CCC[C@H]1C(=O)N[C@@H](CCCNC(=N)N)C(=O)N[C@@H](CO)C(=O)N[C@@H](CCCCN)C(=O)N[C@H](C(=O)N[C@@H](CO)C(=O)N1CCC[C@H]1C(=O)N[C@@H](CCC(N)=O)C(=O)NCC(=O)N[C@@H](Cc1ccc(O)cc1)C(N)=O)[C@@H](C)CC)C(C)C)[C@@H](C)O` [SEQ ID NO: 54, reference compound], for which, in assay [1], the “HLEC survival (in words)” value is reported as “minimal effects; also recorded: negligible effects”. In assay [2], the “HLEC proliferation (in words)” value is “minimal effects; also recorded: negligible effects”.

On to `CCCCCCCCCCCCCCCC(=O)NCCCC[C@H](NC(=O)COCCOCCN)C(=O)N[C@H](C(=O)N[C@@H](CCC(N)=O)C(=O)N[C@@H](CCCCN)C(=O)N[C@@H](CC(C)C)C(=O)N[C@@H](C)C(=O)N[C@@H](Cc1c[nH]cn1)C(=O)N[C@@H](CCC(N)=O)C(=O)N[C@H](C(=O)N[C@@H](Cc1ccc(O)cc1)C(=O)N[C@@H](CCC(N)=O)C(=O)N[C@@H](Cc1ccccc1)C(=O)N[C@H](C(=O)N[C@@H](CC(=O)O)C(=O)N[C@@H](CCCCN)C(=O)N[C@@H](CC(=O)O)C(=O)N[C@@H](CCCCN)C(=O)N[C@@H](CC(=O)O)C(=O)N[C@@H](CC(N)=O)C(=O)N[C@@H](CO)C(=O)N[C@@H](C)C(=O)N1CCC[C@H]1C(=O)N[C@H](C(=O)N[C@@H](CC(=O)O)C(=O)N1CCC[C@H]1C(=O)N[C@@H](CO)C(=O)N[C@@H](CO)C(=O)N1CCC[C@H]1C(=O)N[C@@H](Cc1c[nH]cn1)C(=O)N[C@@H](CO)C(=O)N[C@@H](Cc1ccc(O)cc1)C(N)=O)C(C)C)[C@@H](C)O)[C@@H](C)CC)C(C)C` [SEQ ID NO: 78] (H-[AEEA]K(Palmitoyl)VQKLAHQIYQFTDKDKDNSAPVDPSSPHSY-NH2), for which, at CLR/RAMP3 receptor, the negative logarithm of the IC50 (pIC50) is 8.04 to 9.10.

Molecule `CCCCCCCCCCCCCCCC(=O)NCCCC[C@H](NC(=O)COCCOCCN)C(=O)N[C@H](C(=O)N[C@@H](CCC(N)=O)C(=O)N[C@@H](CCCCN)C(=O)N[C@@H](CC(C)C)C(=O)N[C@@H](C)C(=O)N[C@@H](Cc1c[nH]cn1)C(=O)N[C@@H](CCC(N)=O)C(=O)N[C@H](C(=O)N[C@@H](Cc1ccc(O)cc1)C(=O)N[C@@H](CCC(N)=O)C(=O)N[C@@H](Cc1ccccc1)C(=O)N[C@H](C(=O)N[C@@H](CC(=O)O)C(=O)N[C@@H](CCCCN)C(=O)N[C@@H](CC(=O)O)C(=O)N[C@@H](CO)C(=O)N[C@@H](C)C(=O)N1CCC[C@H]1C(=O)N[C@H](C(=O)N[C@@H](CC(=O)O)C(=O)N1CCC[C@H]1C(=O)N[C@@H](CO)C(=O)N[C@@H](CO)C(=O)N1CCC[C@H]1C(=O)N[C@@H](Cc1c[nH]cn1)C(=O)N[C@@H](CO)C(=O)N[C@@H](Cc1ccc(O)cc1)C(N)=O)C(C)C)[C@@H](C)O)[C@@H](C)CC)C(C)C` [SEQ ID NO: 112] (H-[AEEA]K(Palmitoyl)VQKLAHQIYQFTDKDSAPVDPSSPHSY-NH2) gave a pIC50 against CLR/RAMP3 receptor of 8.04 to 9.10.

On to `CCCCCCCCCCCCCCCC(=O)NCCCC[C@H](NC(=O)COCCOCCN)C(=O)N[C@H](C(=O)N[C@@H](CCC(N)=O)C(=O)N[C@@H](CCCCN)C(=O)N[C@@H](CC(C)C)C(=O)N[C@@H](C)C(=O)N[C@@H](Cc1c[nH]cn1)C(=O)N[C@@H](CCC(N)=O)C(=O)N[C@H](C(=O)N[C@@H](Cc1ccc(O)cc1)C(=O)N[C@@H](CO)C(=O)N[C@@H](C)C(=O)N1CCC[C@H]1C(=O)N[C@H](C(=O)N[C@@H](CC(=O)O)C(=O)N1CCC[C@H]1C(=O)N[C@@H](CO)C(=O)N[C@@H](CO)C(=O)N1CCC[C@H]1C(=O)N[C@@H](Cc1c[nH]cn1)C(=O)N[C@@H](CO)C(=O)N[C@@H](Cc1ccc(O)cc1)C(N)=O)C(C)C)[C@@H](C)CC)C(C)C` [SEQ ID NO: 114], for which the pIC50 at CLR/RAMP3 receptor was 8.04 to 9.10. Besides, the “receptor specificity of antagonist” value on CLR/RAMP1 receptor is on record as “CLR/RAMP1-specific”.

On to `CCCCCCCCCCCCCCCC(=O)N[C@@H](CCCCN)C(=O)N[C@H](C(=O)N[C@@H](CCC(N)=O)C(=O)N[C@@H](CCCCN)C(=O)N[C@@H](CC(C)C)C(=O)N[C@@H](C)C(=O)N[C@@H](Cc1c[nH]cn1)C(=O)N[C@@H](CCC(N)=O)C(=O)N[C@H](C(=O)N[C@@H](Cc1ccc(O)cc1)C(=O)N[C@@H](CCC(N)=O)C(=O)N[C@@H](Cc1ccccc1)C(=O)N[C@H](C(=O)N[C@@H](CC(=O)O)C(=O)N[C@@H](CCCCN)C(=O)N[C@@H](CC(=O)O)C(=O)N[C@H](C(=O)N[C@@H](C)C(=O)N1CCC[C@H]1C(=O)N[C@@H](CCCNC(=N)N)C(=O)N[C@@H](CO)C(=O)N[C@@H](CCCCN)C(=O)N[C@H](C(=O)N[C@@H](CO)C(=O)N1CCC[C@H]1C(=O)N[C@@H](CCC(N)=O)C(=O)NCC(=O)N[C@@H](Cc1ccc(O)cc1)C(N)=O)[C@@H](C)CC)C(C)C)[C@@H](C)O)[C@@H](C)CC)C(C)C` [SEQ ID NO: 119], for which, at CLR/RAMP3 receptor, the pIC50 is 8.04 to 9.10. The “receptor specificity of antagonist” value at CLR/RAMP1 receptor was “CLR/RAMP2-specific”.

In the case of `CCCCCCCCCCCCCCCC(=O)N[C@@H](CCCCN)C(=O)N[C@H](C(=O)N[C@@H](CCC(N)=O)C(=O)N[C@@H](CCCCN)C(=O)N[C@@H](CC(C)C)C(=O)N[C@@H](C)C(=O)N[C@@H](Cc1c[nH]cn1)C(=O)N[C@@H](CCC(N)=O)C(=O)N[C@H](C(=O)N[C@@H](CO)C(=O)N[C@@H](C)C(=O)N1CCC[C@H]1C(=O)N[C@H](C(=O)N[C@@H](CC(=O)O)C(=O)N1CCC[C@H]1C(=O)N[C@@H](CO)C(=O)N[C@@H](CO)C(=O)N1CCC[C@H]1C(=O)N[C@@H](Cc1c[nH]cn1)C(=O)N[C@@H](CO)C(=O)N[C@@H](Cc1ccc(O)cc1)C(N)=O)C(C)C)[C@@H](C)CC)C(C)C` [SEQ ID NO: 123], at CLR/RAMP3 receptor, the pIC50 was 8.04 to 9.10.
